In experiment [1] the test system is pulmonary artery endothelial cells. In words: endothelial monolayer wound repair. The format is cell-based, pigs. The note with it: PEG-SOD 100 units/ml, NOC-18 10 μm. The procedure:
Pulmonary artery endothelial cells were incubated with ABS peptides for 3 h. Then endothelial monolayer wound repair in the absence and presence of PEG-SOD (100 units/ml) and NOC-18 (10 μm) was measured as previously reported (Su, Y., et al. (2006) FASEB J. 20, 1443-51). Endothelial monolayer wound repair distance was expressed as the width of the wound before treatment subtracted by that after treatment.

Experiment [2] deals with PAEC. As to conditions: peptide 20 μM, 95% oxygen 24 h. The procedure:
(§1) Third- to sixth-passage cells in monolayer culture were maintained in RPMI 1640 medium containing 4% fetal bovine serum and antibiotics (10 units/ml penicillin, 100 μg/ml streptomycin, 20 μg/ml gentamicin, and 2 μg/ml Fungizone) and were used 2 or 3 days after confluence.

Experiment [3] deals with PAEC. Put plainly: peroxynitrite formation in hyperoxic PAEC (APF fluorescence). The format is cell-based, pigs. The note with it: 95% oxygen 24 h, uric acid 100 μM. The procedure:
as §1
To reduce β-actin availability to eNOS, the β-actin mRNA was silenced using its siRNA as previously reported by us (Kondrikov, D., et al. (2006) Am. J. Physiol. Lung Cell Mol. Physiol. 290, L41-L50).

For experiment [4], the target named is T1, F-actin (polymerized human β-actin) (Homo sapiens, UniProt P60709).
T1 construct: purchased Cytoskeleton, Inc. (Denver, Co)
In words: F-actin binding spin-down assay. As to conditions: peptide 10 μM, 23 μM F-actin, 30 min, 150,000×g 2 h. The procedure: The binding capacities of the peptides to β-actin were measured by using an F-actin binding spin-down assay kit from Cytoskeleton, Inc. (Denver, Co). Monomeric human β-actin was polymerized into F-actin in F-actin buffer (5 mM Tris-HCl, pH 7.8, 1 mM ATP, 0.5 mM DTT, 0.2 mmM CaCl2, 0.2 mM MgCl2, and 100 mM KCl) for 1 h at 24° C. ABS peptides at final concentrations of 10 μM were incubated alone or with 23 μM F-actin in F-actin buffer for 30 min in a total volume of 50 μl. The mixtures were centrifuged at 150,000×g for 2 h at 24° C. in a Beckman TLA-100 rotor. Supernatant and pellet fractions were resuspended in loading buffer and subjected to SDS-PAGE. The gel was stained with Coomassie Blue. The density of the band was measured using Software Image J.
Actin binding capabilities of the synthesized ABS peptides corresponding to putative ABSs in eNOS were evaluated by the F-actin binding spin-down assay. ABS peptides 326 (P326), control peptides, ABS peptides 492 (P492), and ABS peptides 245 (P245) at final concentrations of 10 μm were incubated for 30 min alone or with 23 μm F-actin in F-actin buffer containing 2.5 μM ATP and 2.5 μM DTT. After high speed centrifugation at 150,000×g for 2 h, the supernatants and pellets were subjected to SDS-PAGE analysis.

For experiment [5], the system named is pulmonary artery endothelial cells. In words: NO production in endothelial cells (NOx, SIEVERS). The format is cell-based, pigs. The procedure:
(§2) After wild-type and eNOS mutant transfection, ionomycin (2 μm) was added to the cells. After 30 min of incubation, culture medium was collected and ethanol-precipitated to remove proteins. 50 μl of the reaction mix were loaded to the SIEVERS machine for NOx measurement according to standard manufacturer's instructions (Church, J. E., and Fulton, D. (2006) J. Biol. Chem. 281, 1477-88). In some experiments, N^G-nitro-1-arginine methyl ester (L-NAME), a specific eNOS inhibitor, was used to inhibit NO production. […] For superoxide assay, after incubation with ABS peptides, the spin trap CMH was added to the cells. Superoxide from cells was trapped for 1 h, and then cells were scraped and subjected to EPR spectroscopy as previously described (Sud, N., et al. (2008) Am. J. Physiol. Cell Physiol. 294, C1407-18). Protein contents in the cell lysates were determined by Lowry's method.
To measure NO production, endothelial cells were incubated with ABS peptides for 3 h. Then ionomycin (2 μM) was added to the cells. After an additional 30 min, culture medium was collected and ethanol-precipitated to remove proteins. 50 μl of the reaction mix were loaded to the SIEVERS machine for NOx measurement as described above. For superoxide assay, after incubation with ABS peptides, the spin trap CMH was added to the cells. […]

Experiment [6] has as its system purified eNOS. Put plainly: NO (NOx) production by purified eNOS in vitro. The format is biochemical, human. The note with it: peptide 20 μm; for β-actin-induced increase in NO production: β-actin 2.0 μm. The protocol: NO production was determined by measuring NOx (NO2 and NO3). Purified eNOS and β-actin were preincubated at room temperature for 30 min and then added to a 50-μl reaction mix containing 50 mM HEPES buffer, 1 mM NADPH, 100 μmM Larginine, 1 mmM CaCl2, 10 μg/ml calmodulin, 4 μM BH4. The mixture was incubated at 37° C. for 30 min. 40 μl of the reaction mix were loaded to the SIEVERS machine for NOx measurement according to standard manufacturer's instructions as previously described (Church, J. E., and Fulton, D. (2006) J. Biol. Chem. 281, 1477-88). For experiments with ABS peptides, β-actin and peptides were preincubated at room temperature for 20 min before eNOS protein was added.

Experiment [7] concerns purified eNOS. In words: L-citrulline assay with purified eNOS. The format is biochemical, human. The note with it: peptide 20 μm; for β-actin-induced increase in L-citrulline production: β-actin 2.0 μm. The procedure:
(§3) Wild-type and mutant eNOS proteins in COS-7 cells were purified. The catalytic activity of purified eNOS mutant protein was assayed by the measurement ofl-[^3H]citrulline formation from 1-[^3H]arginine as reported previously (Su, Y., et al. (2003) Am. J. Physiol. Cell Physiol. 284, C1542-49). To determine NADPH consumption by eNOS, 0.3 mm NADPH was added to 200 μl of reaction mix containing 1 μg eNOS, 1 μM FAD, 1 μmM FMN, 10 μg/ml calmodulin, 100 μMm L-arginine, 1 mM CaCl2, 10 μg/ml calmodulin, and 2.5 mM ATP. The reaction was monitored at […] for 10 min. NADPH consumption was calculated by using a molar extinction coefficient 6.22 mm^−·cm^−1. The superoxide formation from purified eNOS mutant was measured by spin trapping and EPR spectroscopy.

Experiment [8] relates to purified eNOS. Put plainly: superoxide generation by purified eNOS, spin-trapping EPR spectroscopy. The format is biochemical, human. As to conditions: peptide 20 μm; for β-actin-induced decrease in superoxide formation: β-actin 2.0 μm. The procedure:
eNOS-derived superoxide generation was measured by electron paramagnetic resonance (EPR) spectroscopy and spin trapping as previously described (Sud, N., et al. (2008) Am. J. Physiol. Cell Physiol. 294, C1407-18). 50 μl of reaction mix containing 50 mM HEPES buffer, 1 mM NADPH, 100 μM Larginine, 1 mM CaCl2, 10 μg/ml calmodulin, and 1 μg of purified eNOS were incubated at 37° C. for 60 min. 12.5 μl of spin probe N1-hydroxy-3-methoxy-carbonyl-2,2,5,5-tetramethyl-pyrrolidine (CMH) in EPR buffer were added to the reaction mix. 35 μl of the final reaction mix were loaded into a 50-μl capillary tube and analyzed with a MiniScopeMS200 EPR (Magnetech, Berlin, Germany). A reaction curve was generated by adding 1 unit/ml of xanthine oxidase into 500 μM xanthine solution in buffered PBS (pH 7.4), which contains 5 μM diethyldithiocarbamate and 25 μMm desferrioxamine to inhibit any conversion of superoxide into either hydrogen peroxide or hydroxyl radical via Fenton reaction. Reactions were allowed to proceed at 25° C. for up to 40 min. Following incubation, ˜35 μl of each reaction mixture was loaded into a 50 μl capillary tube and analyzed immediately with EPR spectroscopy. EPR spectra were analyzed for amplitude using […] software (version 2.02, Magnettech). Given that 1 unit of xanthine oxidase will convert 1 μmol of xanthine per minute at 25° C., based on this standard curve, it was calculated that 1 EPR amplitude units is equivalent of 0.35 pmol of superoxide.

For experiment [9], the system named is purified eNOS. In words: NADPH consumption assay with purified eNOS. The format is biochemical, human. The note with it: peptide 20 μm, β-actin 2.0 μm, absence of BH4. The protocol:
as §3

For experiment [10], the system named is pulmonary artery endothelial cells. Put plainly: superoxide formation in endothelial cells (CMH spin trap, EPR). The format is cell-based, pigs. As to conditions: ETU 100 μm. The procedure:
To measure NO production, endothelial cells were incubated with ABS peptides for 3 h. Then ionomycin (2 μM) was added to the cells. After an additional 30 min, culture medium was collected and ethanol-precipitated to remove proteins. 50 μl of the reaction mix were loaded to the SIEVERS machine for NOx measurement as described above. For superoxide assay, after incubation with ABS peptides, the spin trap CMH was added to the cells. Superoxide from cells was trapped for 1 h, and then cells were scraped and subjected to EPR spectroscopy.

A further experiment concerns COS-7 cells. In words: superoxide formation in COS-7 cells transfected with wild type or mutant eNOS. The format is cell-based. The note with it: ETU 100 μm or PEG-SOD.
Source text: Human eNOS gene (GenBank™ M93718.1) was cloned into HindIII and XbaI sites of pcDNA3 vector and regarded as wild-type eNOS. […] The site-directed mutagenesis was custom-made by Retrogen (San Diego, Calif.). The sequences of both strands of the gene in the mutated region were verified by using ABI 3730 automated sequencer. Plasmids containing wild-type eNOS cDNA or eNOS mutant cDNA were transfected into COS-7 cells using Lipofectamine LTX with PLUS reagent (Invitrogen, Carlsbad, Calif.) according to the manufacturer's protocol. 48 h after transfection, cells were used for co-immunoprecipitation and assays for NO and superoxide generation.
as §2, with “Superoxide from cells was trapped for 1 h, and then cells were scraped and subjected to EPR spectroscopy as previously described (Sud, N., et al. (2008) Am. J. Physiol. Cell Physiol. 294, C1407-18).” left out

In experiment [11] the test system is PAEC. In words: superoxide radicals in hyperoxic PAEC (DHE fluorescence). The format is cell-based, pigs. As to conditions: 95% oxygen 24 h, tiron 5 mM. The procedure:
After hyperoxic exposure, cells were loaded with 10 μM dihydroethidine (DHE) for 30 min. […] The excitation and emission wavelengths were 510 nm and 590 nm.

Consider `NCCN(CCN)/[N+]([O-])=N/O` [NOC-18, reference compound], for which the “P326TAT-induced decrease in monolayer wound repair” value in [1] is reported as “prevented P326TAT-induced decrease in monolayer wound repair”.

Consider “RKKRRQRRRAAGARAYAA [control peptide TAT, reference compound]”, for which, in the experiment on PAEC [2], the “tyrosine nitration of proteins at 250, 100, 75, and 60 kDa, hyperoxia versus normoxia” value is “hyperoxia induced the increases in tyrosine nitration of proteins”.

In the case of `O=c1[nH]c(=O)c2[nH]c(=O)[nH]c2[nH]1` [uric acid, reference compound], the “hyperoxia-induced increase in APF fluorescence intensity (peroxynitrite)” value with PAEC [3] is “prevented hyperoxia-induced increase in the fluorescence intensity”.

Consider “NSQLVRYAGYRQQDGSVRGDPANVEITEL [ABS peptide 245]”, for which, in [4], the “peptide pulled down to the pellets with F-actin” value is “not pulled down to the pellets with F-actin”.

For the compound `COC(=O)[C@@H](N)CCCNC(=N)N[N+](=O)[O-]` [L-NAME, N^G-nitro-1-arginine methyl ester, reference compound], in experiment [5], the “inhibition of NO production” value worked out at 90%.

In the case of LGLRWYAL [ABS peptide 326], in the experiment with purified eNOS [6] (without β-actin), the “NO production from eNOS, peptide per se” value is “did not affect NO and L-citrulline production and superoxide formation”. The “β-actin-induced increase in NO production” value in the experiment with purified eNOS [6] was “prevented β-actin-induced increase in NO and L-citrulline production”. Also, in the experiment on purified eNOS [7] (without β-actin), the “L-citrulline production from eNOS, peptide per se” value was “did not affect NO and L-citrulline production and superoxide formation”. Moreover, in the experiment with purified eNOS [7], the “β-actin-induced increase in L-citrulline production” value was “prevented β-actin-induced increase in NO and L-citrulline production”. The “superoxide formation from eNOS, peptide per se” value in the experiment with purified eNOS [8] (without β-actin) is “did not affect NO and L-citrulline production and superoxide formation”. Moreover, the “β-actin-induced decrease in superoxide formation” value with purified eNOS [8] is on record as “prevented”. The “β-actin-induced decrease in NADPH consumption” value in the experiment with purified eNOS [9] was “prevented β-actin-induced decrease in NADPH consumption”.

For `CCSC(=N)N` [ETU, 2-ethyl-2-thiopseudourea, reference compound], the “P326TAT-induced increase in superoxide formation” value in [10] was “inhibited P326TAT-induced increase in superoxide formation”. The “superoxide generated from COS-7 cells, wild type versus eNOS mutant, in the presence of the agent” value in the experiment with COS-7 cells is “the amounts of superoxide generated from COS-7 cells containing wild type and eNOS mutant were comparable”.

Regarding `O=S(=O)(O)c1cc(O)c(O)c(S(=O)(=O)O)c1` [tiron], in the experiment with PAEC [11], the “increase in DHE fluorescence intensity (superoxide radical) in hyperoxic PAEC” value is listed as “prevented the increase in the fluorescence intensity in hyperoxic PAEC”.

Turning to “AGARAYAA [control peptide for peptide 326, reference compound]”, the “β-actin-induced increase in NO production” value in the experiment on purified eNOS [6] is “did not affect β-actin-induced changes in the production of NO, L-citrulline, and superoxide from eNOS”. For the same compound, the “β-actin-induced increase in L-citrulline production” value in the experiment with purified eNOS [7] is “did not affect β-actin-induced changes in the production of NO, L-citrulline, and superoxide from eNOS”. The “β-actin-induced decrease in superoxide formation” value in the experiment on purified eNOS [8] is “did not affect β-actin-induced changes in the production of NO, L-citrulline, and superoxide from eNOS”.

The values above are taken from patent US8435947B2, “Endothelial nitric oxide synthase antagonists and uses thereof for inhibiting oxygen toxicity” (Medical College of Georgia Research Institute, Inc., priority 2010, dated 2013).
